Measured values as given in ChEMBL document CHEMBL1129831, “Novel 2,5-disubstituted-1H-pyrroles with high affinity for the dopamine D3 receptor: N-benzyl modifications” (Bioorg Med Chem Lett, 1997).

Assays:
D(3) dopamine receptor = D(3) dopamine receptor (Homo sapiens, UniProt P35462); assay: Binding affinity, displacement of [125I]iodosulpiride from human Dopamine receptor D3 expressed in CHO cells; format: cell-based
D(2) dopamine receptor = D(2) dopamine receptor (Homo sapiens, UniProt P14416); assay: Binding affinity, displacement of [125I]iodosulpiride from human Dopamine receptor D2 expressed in CHO cells; format: cell-based
Sequence of D(2) dopamine receptor (P14416 whole entry): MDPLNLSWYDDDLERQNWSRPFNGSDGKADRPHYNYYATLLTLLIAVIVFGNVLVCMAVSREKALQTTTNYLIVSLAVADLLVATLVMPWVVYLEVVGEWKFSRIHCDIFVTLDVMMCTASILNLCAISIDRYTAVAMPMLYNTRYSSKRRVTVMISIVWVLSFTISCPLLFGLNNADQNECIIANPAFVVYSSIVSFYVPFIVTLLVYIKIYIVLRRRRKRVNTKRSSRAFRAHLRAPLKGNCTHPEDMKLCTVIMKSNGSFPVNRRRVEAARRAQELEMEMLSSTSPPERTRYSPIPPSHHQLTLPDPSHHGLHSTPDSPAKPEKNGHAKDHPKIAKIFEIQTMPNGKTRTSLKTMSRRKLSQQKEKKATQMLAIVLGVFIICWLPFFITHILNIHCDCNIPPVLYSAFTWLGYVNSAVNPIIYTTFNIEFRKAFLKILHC

[1] = target: Dopamine receptors; D2 & D3 (Homo sapiens) (UniProt P14416+P35462); assay: Ratio of D3 receptor to the D2 receptor; format: protein assay

Sequence of D(3) dopamine receptor (P35462 whole entry): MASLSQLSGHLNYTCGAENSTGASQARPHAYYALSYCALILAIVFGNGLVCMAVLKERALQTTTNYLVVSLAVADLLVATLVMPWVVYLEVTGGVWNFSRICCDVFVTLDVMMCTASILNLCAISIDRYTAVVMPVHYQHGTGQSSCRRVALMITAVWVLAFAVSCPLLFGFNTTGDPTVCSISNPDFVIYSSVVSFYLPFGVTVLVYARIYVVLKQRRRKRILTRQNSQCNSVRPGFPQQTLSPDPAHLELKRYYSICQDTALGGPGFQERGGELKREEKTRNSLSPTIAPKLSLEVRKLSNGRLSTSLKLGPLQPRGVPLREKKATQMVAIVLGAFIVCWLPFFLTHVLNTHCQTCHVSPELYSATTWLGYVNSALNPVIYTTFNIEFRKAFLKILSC

Compound	Ki (D(3) dopamine receptor) [nM]	Ki (D(2) dopamine receptor) [nM]	Ratio [1]
CCN(Cc1ccc(-c2cc(S(=O)(=O)CC)ccc2OC)[nH]1)C1CCc2ccccc21 (stereo not drawn)	0.794	0.794	–
CCN(Cc1ccc(-c2cc(S(=O)(=O)CC)ccc2OC)[nH]1)[C@@H](C)c1ccccc1	2.51	25.1	10
CCN(Cc1cccc(Cl)c1)Cc1ccc(-c2cc(S(=O)(=O)CC)ccc2OC)[nH]1	2.51	10	4
CCS(=O)(=O)c1ccc(OC)c(-c2ccc(CN3CCCCCC3c3ccccc3)[nH]2)c1 (stereo not drawn)	–	–	30
CCN(Cc1ccc(-c2cc(S(=O)(=O)CC)ccc2OC)[nH]1)C1CCCc2ccccc21 (stereo not drawn)	5.01	12.6	3
CCS(=O)(=O)c1ccc(OC)c(-c2ccc(CN3CCCCCC3c3cccc(OC)c3)[nH]2)c1 (stereo not drawn)	50.1	794	15
CCN(Cc1cccc(C)c1)Cc1ccc(-c2cc(S(=O)(=O)CC)ccc2OC)[nH]1	1.58	7.94	5
CCN(Cc1ccc(C)cc1)Cc1ccc(-c2cc(S(=O)(=O)CC)ccc2OC)[nH]1	0.2	0.398	2
CCS(=O)(=O)c1ccc(OC)c(-c2ccc(C3CCCN3Cc3ccccc3)[nH]2)c1 (stereo not drawn)	10	39.8	4
CCN(Cc1ccc(OC)cc1)Cc1ccc(-c2cc(S(=O)(=O)CC)ccc2OC)[nH]1	0.251	2	8
CCN(Cc1ccccc1)Cc1ccc(-c2cc(S(=O)(=O)CC)ccc2OC)[nH]1	–	–	3
CCS(=O)(=O)c1ccc(OC)c(-c2ccc(CN3CCc4ccccc4C3)[nH]2)c1	31.6	100	3
CCN(Cc1ccc2c(c1)OCO2)Cc1ccc(-c2cc(S(=O)(=O)CC)ccc2OC)[nH]1	0.631	3.16	5
CCN(Cc1ccc(-c2cc(S(=O)(=O)CC)ccc2OC)[nH]1)Cc1ccccc1C	3.16	6.31	2
CCN1[C@H](c2ccccc2)CC[C@H]1c1ccc(-c2cc(S(=O)(=O)CC)ccc2OC)[nH]1	10	39.8	4
CCN(Cc1ccc(-c2cc(S(=O)(=O)CC)ccc2OC)[nH]1)Cc1ccccc1OC	10	15.8	–
CCN(Cc1ccc(Cl)cc1)Cc1ccc(-c2cc(S(=O)(=O)CC)ccc2OC)[nH]1	0.398	1	3
CCS(=O)(=O)c1ccc(OC)c(-c2ccc(CN3CCCCCC3c3ccc(OC)cc3)[nH]2)c1 (stereo not drawn)	1.58	25.1	15
CCN(Cc1ccc(-c2cc(S(=O)(=O)CC)ccc2OC)[nH]1)Cc1ccccc1Cl	6.31	20	3
CCN(Cc1ccc(OC)c(OC)c1)Cc1ccc(-c2cc(S(=O)(=O)CC)ccc2OC)[nH]1	12.6	31.6	3
CCS(=O)(=O)c1ccc(OC)c(-c2ccc(CN3CCCCCC3c3ccc(C)cc3)[nH]2)c1 (stereo not drawn)	0.794	25.1	30
CCN(Cc1cccc(OC)c1)Cc1ccc(-c2cc(S(=O)(=O)CC)ccc2OC)[nH]1	7.94	79.4	10
CCS(=O)(=O)c1ccc(OC)c(-c2ccc(CN3CCCCCC3c3ccccc3C)[nH]2)c1 (stereo not drawn)	100	1260	10
CCN(Cc1ccc(-c2cc(S(=O)(=O)CC)ccc2OC)[nH]1)[C@H](C)c1ccccc1	0.794	7.94	10
CCN1[C@@H](c2ccc(-c3cc(S(=O)(=O)CC)ccc3OC)[nH]2)CC[C@H]1c1ccccc1	100	158	–
